Data published in PubChem BioAssay (NCI).
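Dose response: 5 concentrations. Exposure: 48 h. Format: 96-well plates. Endpoint: linear interpolation; highest concentration if not reached. The concentration for 50% growth inhibition is given as GI50. TGI denotes the concentration required for complete inhibition of growth.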

Assays:
Test in all cases: NCI-60 cell line screen, 48 h
786-0 renal = system: 786-0 renal
A498 renal = system: A498 renal
A549 NSCLC = system: A549 NSCLC
ACHN renal = system: ACHN renal
BT-549 breast = system: BT-549 breast
CAKI-1 renal = system: CAKI-1 renal
CCRF-CEM leukemia = system: CCRF-CEM leukemia
DU-145 prostate = system: DU-145 prostate
EKVX NSCLC = system: EKVX NSCLC
HCC-2998 colon = system: HCC-2998 colon
HCT-116 colon = system: HCT-116 colon
HCT-15 colon = system: HCT-15 colon
HL-60(TB) leukemia = system: HL-60(TB) leukemia
HOP-62 NSCLC = system: HOP-62 NSCLC
HOP-92 NSCLC = system: HOP-92 NSCLC
HS 578T breast = system: HS 578T breast
HT29 colon = system: HT29 colon
IGROV1 ovarian = system: IGROV1 ovarian
K-562 leukemia = system: K-562 leukemia
KM12 colon = system: KM12 colon
LOX IMVI melanoma = system: LOX IMVI melanoma
M14 melanoma = system: M14 melanoma
MALME-3M melanoma = system: MALME-3M melanoma
MCF7 breast = system: MCF7 breast
MDA-MB-231 breast = system: MDA-MB-231 breast
MDA-MB-435 = system: MDA-MB-435
MOLT-4 leukemia = system: MOLT-4 leukemia
NCI-H226 lung = system: NCI-H226 lung
NCI-H23 lung = system: NCI-H23 lung
NCI-H460 lung = system: NCI-H460 lung
NCI/ADR-RES ovarian = system: NCI/ADR-RES ovarian
OVCAR-3 ovarian = system: OVCAR-3 ovarian
OVCAR-4 ovarian = system: OVCAR-4 ovarian
OVCAR-5 ovarian = system: OVCAR-5 ovarian
OVCAR-8 ovarian = system: OVCAR-8 ovarian
PC-3 prostate = system: PC-3 prostate
RPMI-8226 leukemia = system: RPMI-8226 leukemia
RXF 393 renal = system: RXF 393 renal
SF-268 CNS = system: SF-268 CNS
SF-295 CNS = system: SF-295 CNS
SF-539 CNS = system: SF-539 CNS
SK-MEL-2 melanoma = system: SK-MEL-2 melanoma
SK-MEL-28 melanoma = system: SK-MEL-28 melanoma
SK-MEL-5 melanoma = system: SK-MEL-5 melanoma
SK-OV-3 ovarian = system: SK-OV-3 ovarian
SN12C renal = system: SN12C renal
SNB-19 CNS = system: SNB-19 CNS
SNB-75 CNS = system: SNB-75 CNS
SW-620 colon = system: SW-620 colon
T-47D breast = system: T-47D breast
TK-10 renal = system: TK-10 renal
U251 CNS = system: U251 CNS
UACC-257 melanoma = system: UACC-257 melanoma
UACC-62 melanoma = system: UACC-62 melanoma
UO-31 renal = system: UO-31 renal

## IP(CCCSc1n(Cc2ccc3ccccc3c2)c(-c2ccccc2)c(-c2ccccc2)[n+]1Cc1ccc2ccccc2c1)(c1ccccc1)(c1ccccc1)c1ccccc1
786-0 renal
  GI50: 5.81 µM
  TGI: 40.1 µM
A498 renal
  GI50: 3.88 µM
  TGI: 29.4 µM
A549 NSCLC
  GI50: 4.49 µM
  TGI: 36.1 µM
ACHN renal
  GI50: 20.2 µM
  TGI: 96.4 µM
BT-549 breast
  GI50: 2.6 µM
  TGI: 7.25 µM
CAKI-1 renal
  GI50: 9.96 µM
  TGI: 31.7 µM
CCRF-CEM leukemia
  GI50: 3.11 µM
  TGI: 12 µM
DU-145 prostate
  GI50: 3.57 µM
  TGI: 23.9 µM
EKVX NSCLC
  GI50: 4.43 µM
  TGI: 43.1 µM
HCC-2998 colon
  GI50: 3.74 µM
  TGI: 16.3 µM
HCT-116 colon
  GI50: 2.99 µM
  TGI: 10.6 µM
HCT-15 colon
  GI50: 19.6 µM
  TGI: > 100 µM
HL-60(TB) leukemia
  GI50: 1.9 µM
  TGI: 3.86 µM
HOP-62 NSCLC
  GI50: 3.3 µM
  TGI: 23.4 µM
HOP-92 NSCLC
  GI50: 1.69 µM
  TGI: 6.48 µM
HS 578T breast
  GI50: 3.04 µM
  TGI: 14.1 µM
HT29 colon
  GI50: 2.52 µM
  TGI: 7.14 µM
IGROV1 ovarian
  GI50: 2.96 µM
  TGI: > 100 µM
K-562 leukemia
  GI50: 3.05 µM
  TGI: 10.4 µM
KM12 colon
  GI50: 2.45 µM
  TGI: 6.23 µM
LOX IMVI melanoma
  GI50: 1.94 µM
  TGI: 4.49 µM
M14 melanoma
  GI50: 3.34 µM
  TGI: 23 µM
MALME-3M melanoma
  GI50: 2.37 µM
  TGI: 8.23 µM
MCF7 breast
  GI50: 2.77 µM
  TGI: 9 µM
MDA-MB-231 breast
  GI50: 2.81 µM
  TGI: 9.58 µM
MDA-MB-435
  GI50: 2.84 µM
  TGI: 11 µM
MOLT-4 leukemia
  GI50: 3.05 µM
  TGI: 11.5 µM
NCI-H226 lung
  GI50: 12.2 µM
  TGI: 98.2 µM
NCI-H23 lung
  GI50: 2.34 µM
  TGI: 7.13 µM
NCI-H460 lung
  GI50: 2.53 µM
  TGI: 6.25 µM
NCI/ADR-RES ovarian
  GI50: 17.3 µM
  TGI: > 100 µM
OVCAR-3 ovarian
  GI50: 2.81 µM
  TGI: 8.86 µM
OVCAR-4 ovarian
  GI50: 3.16 µM
  TGI: 22.5 µM
OVCAR-5 ovarian
  GI50: 3.59 µM
  TGI: 17.4 µM
OVCAR-8 ovarian
  GI50: 5.62 µM
  TGI: > 100 µM
PC-3 prostate
  GI50: 2.84 µM
  TGI: 10.8 µM
RPMI-8226 leukemia
  GI50: 2.49 µM
  TGI: 6.81 µM
RXF 393 renal
  GI50: 2.8 µM
  TGI: 9.44 µM
SF-268 CNS
  GI50: 3.42 µM
  TGI: 20.3 µM
SF-295 CNS
  GI50: 3.3 µM
  TGI: 16.2 µM
SF-539 CNS
  GI50: 3.08 µM
  TGI: 9.57 µM
SK-MEL-2 melanoma
  GI50: 2.05 µM
  TGI: 5.41 µM
SK-MEL-28 melanoma
  GI50: 3.25 µM
  TGI: 15.9 µM
SK-MEL-5 melanoma
  GI50: 2.42 µM
  TGI: 5.91 µM
SK-OV-3 ovarian
  GI50: 3.9 µM
  TGI: 38.4 µM
SN12C renal
  GI50: 4.07 µM
  TGI: 17.4 µM
SNB-19 CNS
  GI50: 2.39 µM
  TGI: 16.7 µM
SNB-75 CNS
  GI50: 2.03 µM
  TGI: 9.21 µM
SW-620 colon
  GI50: 3.56 µM
  TGI: 21.9 µM
T-47D breast
  GI50: 2.89 µM
  TGI: 14.1 µM
TK-10 renal
  GI50: 8.12 µM
  TGI: 59 µM
U251 CNS
  GI50: 3.26 µM
  TGI: > 100 µM
UACC-257 melanoma
  GI50: 2.89 µM
  TGI: 9.64 µM
UACC-62 melanoma
  GI50: 2.35 µM
  TGI: 7.91 µM
UO-31 renal
  GI50: 5.55 µM
  TGI: > 100 µM
